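Five compound concentrations were applied to cells in 96-well plates for 48 hours; endpoints were derived by simple linear interpolation of the resulting dose-response curve. At the TGI there is no net growth.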
Tests used:
Test in all cases: growth of human tumour cells (NCI), 48 h
NCI-H460 lung = tested on: NCI-H460 lung
SNB-19 CNS = tested on: SNB-19 CNS
HL-60(TB) leukemia = tested on: HL-60(TB) leukemia
SW-620 colon = tested on: SW-620 colon
SK-MEL-2 melanoma = tested on: SK-MEL-2 melanoma
MCF7 breast = tested on: MCF7 breast
HS 578T breast = tested on: HS 578T breast
SK-MEL-5 melanoma = tested on: SK-MEL-5 melanoma
SK-OV-3 ovarian = tested on: SK-OV-3 ovarian
NCI-H226 lung = tested on: NCI-H226 lung
OVCAR-4 ovarian = tested on: OVCAR-4 ovarian
UO-31 renal = tested on: UO-31 renal
UACC-257 melanoma = tested on: UACC-257 melanoma
HOP-92 NSCLC = tested on: HOP-92 NSCLC
SF-295 CNS = tested on: SF-295 CNS
CAKI-1 renal = tested on: CAKI-1 renal
CCRF-CEM leukemia = tested on: CCRF-CEM leukemia
ACHN renal = tested on: ACHN renal
OVCAR-3 ovarian = tested on: OVCAR-3 ovarian
SK-MEL-28 melanoma = tested on: SK-MEL-28 melanoma
SNB-75 CNS = tested on: SNB-75 CNS
NCI-H522 lung = tested on: NCI-H522 lung
MALME-3M melanoma = tested on: MALME-3M melanoma
U251 CNS = tested on: U251 CNS
OVCAR-8 ovarian = tested on: OVCAR-8 ovarian
786-0 renal = tested on: 786-0 renal
HCC-2998 colon = tested on: HCC-2998 colon
OVCAR-5 ovarian = tested on: OVCAR-5 ovarian
EKVX NSCLC = tested on: EKVX NSCLC
HCT-116 colon = tested on: HCT-116 colon
A549 NSCLC = tested on: A549 NSCLC
IGROV1 ovarian = tested on: IGROV1 ovarian
K-562 leukemia = tested on: K-562 leukemia
T-47D breast = tested on: T-47D breast
A498 renal = tested on: A498 renal
MDA-MB-231 breast = tested on: MDA-MB-231 breast
SF-268 CNS = tested on: SF-268 CNS
HCT-15 colon = tested on: HCT-15 colon
HOP-62 NSCLC = tested on: HOP-62 NSCLC
TK-10 renal = tested on: TK-10 renal
MOLT-4 leukemia = tested on: MOLT-4 leukemia
UACC-62 melanoma = tested on: UACC-62 melanoma
SF-539 CNS = tested on: SF-539 CNS
BT-549 breast = tested on: BT-549 breast
RPMI-8226 leukemia = tested on: RPMI-8226 leukemia
DU-145 prostate = tested on: DU-145 prostate
PC-3 prostate = tested on: PC-3 prostate
SN12C renal = tested on: SN12C renal
M14 melanoma = tested on: M14 melanoma
HT29 colon = tested on: HT29 colon
KM12 colon = tested on: KM12 colon
NCI/ADR-RES ovarian = tested on: NCI/ADR-RES ovarian
LOX IMVI melanoma = tested on: LOX IMVI melanoma
RXF 393 renal = tested on: RXF 393 renal
MDA-MB-435 = tested on: MDA-MB-435
NCI-H23 lung = tested on: NCI-H23 lung
SR leukemia = tested on: SR leukemia
COLO 205 colon = tested on: COLO 205 colon

In the case of O=C(CSCC(=O)N/N=C/c1cccs1)N/N=C/c1cccs1, the TGI (NCI-H460 lung) is reported as over 100 µM, the TGI (SNB-19 CNS) is reported as over 100 µM and the TGI (HL-60(TB) leukemia) is reported as over 100 µM. It also gave a TGI (SW-620 colon) of over 100 µM, a TGI (SK-MEL-2 melanoma) of over 100 µM and a TGI (MCF7 breast) of over 100 µM. The TGI (HS 578T breast) was over 100 µM, the TGI (SK-MEL-5 melanoma) was over 100 µM and the TGI (SK-OV-3 ovarian) was over 100 µM. It also gave a TGI (NCI-H226 lung) of over 100 µM, a TGI (OVCAR-4 ovarian) of over 100 µM and a TGI (UO-31 renal) of over 100 µM. For the same molecule, the TGI (UACC-257 melanoma) was over 100 µM, the TGI (HOP-92 NSCLC) was over 100 µM and the TGI (SF-295 CNS) was over 100 µM. It also gave a TGI (CAKI-1 renal) of over 100 µM, a TGI (CCRF-CEM leukemia) of over 100 µM and a TGI (ACHN renal) of over 100 µM. The TGI (OVCAR-3 ovarian) was over 100 µM, the TGI (SK-MEL-28 melanoma) was over 100 µM and the TGI (SNB-75 CNS) was over 100 µM. It also gave a TGI (NCI-H522 lung) of over 100 µM, a TGI (MALME-3M melanoma) of over 100 µM and a TGI (U251 CNS) of over 100 µM. For the same molecule, the TGI (OVCAR-8 ovarian) was over 100 µM, the TGI (786-0 renal) was over 100 µM and the TGI (HCC-2998 colon) was over 100 µM. For the same molecule, the TGI (OVCAR-5 ovarian) was over 100 µM, the TGI (EKVX NSCLC) was over 100 µM and the TGI (HCT-116 colon) was over 100 µM. For the same molecule, the TGI (A549 NSCLC) was over 100 µM, the TGI (IGROV1 ovarian) was over 100 µM and the TGI (K-562 leukemia) was over 100 µM. For the same molecule, the TGI (T-47D breast) was over 100 µM, the TGI (A498 renal) was over 100 µM and the TGI (MDA-MB-231 breast) was over 100 µM. For the same molecule, the TGI (SF-268 CNS) was over 100 µM, the TGI (HCT-15 colon) was over 100 µM and the TGI (HOP-62 NSCLC) was over 100 µM. The TGI (TK-10 renal) was over 100 µM, the TGI (MOLT-4 leukemia) was over 100 µM and the TGI (UACC-62 melanoma) was over 100 µM. It also gave a TGI (SF-539 CNS) of over 100 µM, a TGI (BT-549 breast) of over 100 µM and a TGI (RPMI-8226 leukemia) of over 100 µM. It also gave a TGI (DU-145 prostate) of over 100 µM, a TGI (PC-3 prostate) of over 100 µM and a TGI (SN12C renal) of over 100 µM. For the same molecule, the TGI (M14 melanoma) was over 100 µM, the TGI (HT29 colon) was over 100 µM and the TGI (KM12 colon) was over 100 µM. For the same molecule, the TGI (NCI/ADR-RES ovarian) was over 100 µM, the TGI (LOX IMVI melanoma) was over 100 µM and the TGI (RXF 393 renal) was over 100 µM. It also gave a TGI (MDA-MB-435) of over 100 µM and a TGI (NCI-H23 lung) of over 100 µM.

For CCOC(=O)C1=C(C(=O)c2ccc(C)cc2)C(c2cccc([N+](=O)[O-])c2)C(C(=O)c2ccc(C)cc2)=C(C(=O)OCC)N1, the TGI (NCI-H460 lung) was over 100 µM, the TGI (SNB-19 CNS) was 25.9 µM and the TGI (HL-60(TB) leukemia) was 96.7 µM. The TGI (SW-620 colon) was 27.1 µM, the TGI (SK-MEL-2 melanoma) was over 100 µM and the TGI (MCF7 breast) was over 100 µM. It also gave a TGI (HS 578T breast) of 63.9 µM, a TGI (SK-MEL-5 melanoma) of 33.1 µM and a TGI (SK-OV-3 ovarian) of 27.9 µM. The TGI (NCI-H226 lung) was 35.2 µM, the TGI (OVCAR-4 ovarian) was 84.6 µM and the TGI (UO-31 renal) was 29.5 µM. For the same molecule, the TGI (UACC-257 melanoma) was 41.4 µM, the TGI (SF-295 CNS) was 32.1 µM and the TGI (CAKI-1 renal) was 43.5 µM. For the same molecule, the TGI (CCRF-CEM leukemia) was 8.57 µM, the TGI (ACHN renal) was 28.3 µM and the TGI (OVCAR-3 ovarian) was 28.8 µM. It also gave a TGI (SK-MEL-28 melanoma) of 34.2 µM, a TGI (SNB-75 CNS) of over 100 µM and a TGI (NCI-H522 lung) of 36.2 µM. It also gave a TGI (MALME-3M melanoma) of 66.4 µM, a TGI (U251 CNS) of 25.8 µM and a TGI (OVCAR-8 ovarian) of 45 µM. The TGI (786-0 renal) was 32.9 µM, the TGI (OVCAR-5 ovarian) was 34.7 µM and the TGI (EKVX NSCLC) was 47.1 µM. It also gave a TGI (SR leukemia) of 35.3 µM, a TGI (HCT-116 colon) of 19.6 µM and a TGI (A549 NSCLC) of 66.1 µM. The TGI (IGROV1 ovarian) was 35.3 µM, the TGI (K-562 leukemia) was 57.9 µM and the TGI (T-47D breast) was 8.84 µM. It also gave a TGI (MDA-MB-231 breast) of 29 µM, a TGI (SF-268 CNS) of 46.1 µM and a TGI (HCT-15 colon) of 6.13 µM. It also gave a TGI (HOP-62 NSCLC) of 41 µM, a TGI (COLO 205 colon) of 4.03 µM and a TGI (TK-10 renal) of 43.2 µM. For the same molecule, the TGI (MOLT-4 leukemia) was over 100 µM, the TGI (UACC-62 melanoma) was 33.5 µM and the TGI (SF-539 CNS) was 26.7 µM. The TGI (BT-549 breast) was over 100 µM, the TGI (DU-145 prostate) was 32.2 µM and the TGI (PC-3 prostate) was 59.9 µM. For the same molecule, the TGI (SN12C renal) was 32.4 µM, the TGI (M14 melanoma) was 32.9 µM and the TGI (HT29 colon) was 28.7 µM. It also gave a TGI (KM12 colon) of 25.4 µM, a TGI (NCI/ADR-RES ovarian) of 39.2 µM and a TGI (LOX IMVI melanoma) of 31.4 µM. The TGI (RXF 393 renal) was 68.6 µM, the TGI (MDA-MB-435) was 33.2 µM and the TGI (NCI-H23 lung) was 30.1 µM.

Source: PubChem BioAssay (NCI)
